In this test the target is T1, NLRP3 (Homo sapiens, UniProt Q96P20).
T1 construct: host or cells: PMA-differentiated THP-1 cells
T1 sequence (Q96P20 whole entry): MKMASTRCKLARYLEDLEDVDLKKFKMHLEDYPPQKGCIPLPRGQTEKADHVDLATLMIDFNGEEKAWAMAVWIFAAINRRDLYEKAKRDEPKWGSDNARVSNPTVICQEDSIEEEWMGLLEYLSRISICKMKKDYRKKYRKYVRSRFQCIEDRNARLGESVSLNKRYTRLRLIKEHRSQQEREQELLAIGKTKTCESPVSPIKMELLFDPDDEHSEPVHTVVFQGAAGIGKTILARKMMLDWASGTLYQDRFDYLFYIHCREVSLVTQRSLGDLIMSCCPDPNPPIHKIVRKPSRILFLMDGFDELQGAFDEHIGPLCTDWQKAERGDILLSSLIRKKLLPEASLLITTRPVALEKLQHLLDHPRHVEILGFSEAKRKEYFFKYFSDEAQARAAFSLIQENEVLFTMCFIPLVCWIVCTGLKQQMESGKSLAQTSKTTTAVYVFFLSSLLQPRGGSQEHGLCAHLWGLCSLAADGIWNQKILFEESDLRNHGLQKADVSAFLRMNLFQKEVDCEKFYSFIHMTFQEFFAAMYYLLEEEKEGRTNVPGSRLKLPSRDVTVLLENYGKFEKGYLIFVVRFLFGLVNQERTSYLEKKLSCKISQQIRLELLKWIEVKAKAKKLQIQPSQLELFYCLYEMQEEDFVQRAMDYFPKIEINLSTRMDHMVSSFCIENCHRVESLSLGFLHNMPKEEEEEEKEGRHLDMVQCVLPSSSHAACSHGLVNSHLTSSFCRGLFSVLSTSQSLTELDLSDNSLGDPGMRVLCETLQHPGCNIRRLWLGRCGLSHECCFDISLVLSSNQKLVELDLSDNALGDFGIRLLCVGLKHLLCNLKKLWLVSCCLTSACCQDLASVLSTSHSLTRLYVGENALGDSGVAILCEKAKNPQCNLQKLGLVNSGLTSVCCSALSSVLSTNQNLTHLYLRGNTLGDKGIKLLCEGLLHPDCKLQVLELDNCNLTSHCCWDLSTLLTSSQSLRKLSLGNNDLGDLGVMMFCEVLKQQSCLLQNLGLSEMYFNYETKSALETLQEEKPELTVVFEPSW
Description: Measurement of IL-1β production in PMA-differentiated THP-1 cells (NLRP3 hIL1B EC50). Format: cell-based. As to the method:
Measurement of IL-1β Production in PMA-Differentiated THP-1 Cells
THP-1 cells were purchased from the American Type Culture Collection and sub-cultured according to instructions from the supplier. Prior to experiments, cells were cultured in RPMI 1640 containing 10% heat inactivated FBS, penicillin (100 units/ml) and streptomycin (100 μg/ml), and maintained in log phase prior to experimental setup. Prior to the experiment THP-1 were treated with PMA (Phorbol 12-myristate 13-acetate) (10 μg/ml) for 24 hours. The day of the experiment the media was removed and attaching cells were treated with trypsin for 2 minutes, cells were then collected, washed with PBS (phosphate buffer saline), spin down, resuspended in 2% heat inactivated FBS with RPMI at a concentration of 1×10^6 cells/ml, and 100 μl was plated in a 96 well plate. Compounds were dissolved in dimethyl sulfoxide (DMSO) and added to the culture medium to achieve desired concentration (e.g. 100, 30, 10, 3, 1, 0.3 or 0.1 μM). Cells were incubated with compounds for 4 hours. Cell free supernatant was collected and the production of IL-1β was evaluated by ELISA. A vehicle only control was run concurrently with each experiment. Final DMSO concentration was 1%.
Measurement of IL-1β Production in PMA-Differentiated THP-1 Cells (Alternative Procedure)
THP-1 cells were purchased from the American Type Culture Collection and sub-cultured according to instructions from the supplier. Prior to experiments, cells were cultured in RPMI 1640 containing 10% heat inactivated FBS, penicillin (100 units/ml), streptomycin (100 μg/ml), HEPES (10 mM) and sodium pyruvate (1 mM) and maintained in log phase prior to experimental setup. Prior to the experiment, THP-1 cells were treated with PMA (Phorbol 12-myristate 13-acetate) (20 μg/ml) overnight. The day of the experiment, the media was removed and attached cells were treated with trypsin for 2 minutes, cells were then collected, washed with PBS (phosphate buffer saline), pelleted by centrifugation and resuspended in 2% heat inactivated FBS with RPMI at a concentration of 50,000 cells/well in a 384 well plate. Cell free supernatant was collected and the production of IL-1β was evaluated by ELISA. Compounds were dissolved in dimethyl sulfoxide (DMSO) and added to the culture medium to achieve desired concentration (e.g. 100, 30, 10, 3, 1, 0.3 or 0.1 μM). Cells were incubated with compounds for 2 hours. A vehicle only control was run concurrently with each experiment. Final DMSO concentration was 1%.
Measurement of IL-1β Production—hTRF Protocol (Second Alternative Procedure)
Serial dilutions of compounds in DMSO were added to low volume 384 well plates at 100 nl/well using an ECHO 550 acoustic dispenser (Labcyte) to achieve final starting concentration of 10 μM in assay.
THP-1 cells in RPMI (Gibco, 11875) media with 10% FBS at a density of 1×10^6 cell/ml in a T175 flask were treated with a final concentration of phorbol 12-myristate 13-acetate (PMA) (Sigma, P1585) of 50 ng/ml overnight at 37° C. at 5% CO2 for differentiation. Cells were harvested the next day after rinsing well wth dPBS using 0.5% trypsin. A cell solution was prepared of 1×10^6 cells/ml for 50,000 cells in 50 μl/well in RPMI media with 2% FBS. Cells were plated using a multichannel pipette onto the compound dilutions in Greiner, 384 well, black clear bottom tissue culture treated plates (781090). The plates were incubated in 37° C. incubator at 5% CO2 for 2 hours.
After the 2 hour incubation, the cell plates were spun in the centrifuge for 5 minutes at 1200 rpm. Using the Felix (CyBio), 8 μl of the supernatant was transferred to 384 well, low volume, white proxy plates. (Perkin Elmer, 6008230). A human IL1beta hTRF kit was used to analyze the supernatant (CISBIO, 62HIL1BPEG). The kit instructions were followed for preparing the IL1Beta standard curve and then the antibodies from the kit were diluted 1:40 rather than 1:20 as kit instructed. […]
A word on the EC50: it is the concentration that produces a half-maximal response. The low end stands for a more potent agent, the high end for a less potent agent. The compound `Nc1nc(N[C@@H]2C[C@H]3CC[C@@H]2O3)c2ccc(-c3ccn[nH]3)cc2n1` (racemic) [Example 1, rac-N4-((1R,2S,4S)-7-oxabicyclo[2.2.1]heptan-2-yl)-7-(1H-pyrazol-5-yl)quinazoline-2,4-diamine] came in with an EC50 of 120 nM. Compound `Nc1nc(N[C@@H]2C[C@H]3CC[C@]2(CO)O3)c2ccc(-c3ccn[nH]3)cc2n1` (racemic) [Example 8] displayed an EC50 of 3700 nM.

Regarding `Nc1nc(N2CC3CC2CO3)c2ccc(-c3cc[nH]n3)cc2n1` (racemic) [Example 9, rac-4-(2-oxa-5-azabicyclo[2.2.1]heptan-5-yl)-7-(1H-pyrazol-3-yl)quinazolin-2-amine], the EC50 came out at 680 nM. Against the preceding compound, the EC50 is about 5.4-fold lower. Then `Nc1cc(N[C@H]2C[C@@H]3CC[C@H]2O3)c2ccc(-c3ccn[nH]3)cc2n1` (racemic) [Example 15, rac-N4-((1R,2S,4S)-7-oxabicyclo[2.2.1]heptan-2-yl)-7-(1H-pyrazol-5-yl)quinoline-2,4-diamine], with 250 nM; and `Nc1cc(N[C@H]2[C@@H]3CC[C@@H](C3)[C@H]2CO)c2ccc(-c3ccn[nH]3)cc2n1` (racemic) [Example 17, rac-((1R,2S,3R,4S)-3-((2-amino-7-(1H-pyrazol-5-yl)quinolin-4-yl)amino)bicyclo[2.2.1]heptan-2-yl)methanol], with 1670 nM.

Take `CC(C)(C)OC(=O)N1CCC2(CC1)CC2Nc1nc(N)nc2cc(-c3cc[nH]n3)ccc12` (racemic) [Example 27, (rac)-tert-butyl 1-((2-amino-7-(1H-pyrazol-3-yl)quinazolin-4-yl)amino)-6-azaspiro[2.5]octane-6-carboxylate]: a half-maximal effect (EC50) was put at 390 nM. The compound `Nc1nc(N[C@@H]2C[C@@H]3CC[C@H]2O3)c2ccc(-c3ccn[nH]3)cc2n1` (racemic) [Example 29, rac-N4-((1R,2R,4S)-7-oxabicyclo[2.2.1]heptan-2-yl)-7-(1H-pyrazol-5-yl)quinazoline-2,4-diamine] yielded an EC50 of 500 nM. `Nc1cc(N[C@@H]2C[C@@H]3CC[C@H]2O3)c2ccc(-c3ccn[nH]3)cc2n1` (racemic) [Example 30, rac-N4-((1R,2R,4S)-7-oxabicyclo[2.2.1]heptan-2-yl)-7-(1H-pyrazol-5-yl)quinoline-2,4-diamine] yielded an EC50 of 650 nM. Then `Nc1nc(N[C@H]2C[C@H]3O[C@@H]2C[C@@H]3O)c2ccc(-c3ccn[nH]3)cc2n1` (racemic) [Example 31A, rac-(1R,2S,4R,5S)-5-((2-amino-7-(1H-pyrazol-5-yl)quinazolin-4-yl)amino)-7-oxabicyclo[2.2.1]heptan-2-ol], with 1210 nM; and `Nc1nc(N[C@@H]2C[C@H]3C[C@H](O)[C@@H]2O3)c2ccc(-c3ccn[nH]3)cc2n1` (racemic) [Example 31B, rac-(1R,2S,4S,6R)-6-((2-amino-7-(1H-pyrazol-5-yl)quinazolin-4-yl)amino)-7-oxabicyclo[2.2.1]heptan-2-ol], with 1850 nM.

In turn, `Nc1nc(N[C@H]2CC3CC2[C@@H](O)C3)c2ccc(-c3ccn[nH]3)cc2n1` (mixture of isomers) [Example 40, rac-(2S,6S)-6-((2-amino-7-(1H-pyrazol-5-yl)quinazolin-4-yl)amino)bicyclo[2.2.1]heptan-2-ol] yielded an EC50 of 220 nM. As for `Nc1nc(N[C@H]2C[C@@H]3C[C@H]2C[C@H]3O)c2ccc(-c3ccn[nH]3)cc2n1` (racemic) [Example 42], the figure is 740 nM. With `Nc1nc(N[C@H]2C[C@@H]3C[C@H]2[C@@H](O)C3)c2ccc(-c3ccn[nH]3)cc2n1` (racemic) [Example 44, rac-(1R,2S,4S,6S)-6-((2-amino-7-(1H-pyrazol-5-yl)quinazolin-4-yl)amino)bicyclo[2.2.1]heptan-2-ol], the EC50 came to 2370 nM. Compared with the last compound, the EC50 is about 3.2-fold higher. As for `Nc1cc(N[C@@H]2C[C@H]3C[C@@H]2[C@@H](O)C3)c2ccc(-c3ccn[nH]3)cc2n1` (racemic) [Example 46, rac-(1S,2S,4R,6R)-6-((2-amino-7-(1H-pyrazol-5-yl)quinolin-4-yl)amino)bicyclo[2.2.1]heptan-2-ol], the figure is 1330 nM. Regarding `Nc1nc(N2C[C@H]3C[C@@H]2CO3)c2ccc(-c3cc[nH]n3)cc2n1` (single isomer, unassigned) [Example 10], the EC50 was determined as 1600 nM. The EC50 values of the last two compounds are within 1.5-fold of each other. Regarding `Nc1cc(N[C@H]2C3CCC(C3)[C@H]2CO)c2ccc(-c3ccn[nH]3)cc2n1` (single isomer, unassigned) [Example 18B], the EC50 came to 980 nM. For the compound `Nc1cc(N[C@H]2C3CCC(C3)[C@H]2CO)c2ccc(-c3ccn[nH]3)cc2n1` (single isomer, unassigned) [Example 18], a half-maximal effect (EC50) was put at 3000 nM. Compared with the last compound, the EC50 is about 3.1-fold higher.

In turn, `Nc1cc(NC2CC3(CC(O)C3)C2)c2ccc(-c3ccn[nH]3)cc2n1` (single isomer, unassigned) [Example 26A, (Sa)-6-(2-amino-7-(1H-pyrazol-5-yl)quinolin-4-ylamino)spiro[3.3]heptan-2-ol] had an EC50 of 30 nM. This EC50 is about 100-fold lower than that of the compound before.

As for `Nc1cc(NC2CC3(CC(O)C3)C2)c2ccc(-c3ccn[nH]3)cc2n1` (single isomer, unassigned) [Example 26B, (Ra)-6-(2-amino-7-(1H-pyrazol-5-yl)quinolin-4-ylamino)spiro[3.3]heptan-2-ol], the response was half-maximal at 250 nM (EC50).

As to `CC(C)(C)OC(=O)N1CCC2(CC1)CC2Nc1nc(N)nc2cc(-c3cc[nH]n3)ccc12` (single isomer, unassigned) [Example 28A], the EC50 was found to be 1940 nM. The compound `CC(C)(C)OC(=O)N1CCC2(CC1)CC2Nc1nc(N)nc2cc(-c3cc[nH]n3)ccc12` (single isomer, unassigned) [Example 28B] yielded an EC50 of 780 nM. This EC50 lies about 2.5-fold lower than the previous one. The compound `Nc1cc(N[C@H]2C[C@@H]3C[C@@H](O)[C@H]2O3)c2ccc(-c3ccn[nH]3)cc2n1` (single isomer, unassigned) [Example 32B] had an EC50 of 250 nM. As for `Nc1nc(NC2CC23CC3)c2ccc(-c3cc[nH]n3)cc2n1` (single isomer, unassigned) [Example 36A], the figure is 85 nM; as for `Nc1nc(NC2CC23CC3)c2ccc(-c3cc[nH]n3)cc2n1` (single isomer, unassigned) [Example 36B], 130 nM.

`Nc1nc(NC2CC3CC(O)C2C3)c2ccc(-c3ccn[nH]3)cc2n1` (single isomer, unassigned) [Example 41A]: the EC50 came to 160 nM. For the compound `Nc1nc(NC2CC3CC(O)C2C3)c2ccc(-c3ccn[nH]3)cc2n1` (single isomer, unassigned) [Example 41B], the EC50 was determined as 960 nM. Against the preceding compound, the EC50 is about 6-fold higher. As for `Nc1nc(N[C@H]2C[C@@H]3C[C@H]2C[C@H]3O)c2ccc(-c3ccn[nH]3)cc2n1` (single isomer, unassigned) [Example 43A], the figure is 1640 nM; as for `Nc1nc(N[C@H]2C[C@@H]3C[C@H]2C[C@H]3O)c2ccc(-c3ccn[nH]3)cc2n1` (single isomer, unassigned) [Example 43B], 1110 nM.

Turning to `Nc1nc(N[C@H]2C[C@@H]3C[C@H]2[C@@H](O)C3)c2ccc(-c3ccn[nH]3)cc2n1` (single isomer, unassigned) [Example 45A], the 50% effective concentration (EC50) worked out at 2120 nM. `Nc1nc(N[C@H]2C[C@@H]3C[C@H]2[C@@H](O)C3)c2ccc(-c3ccn[nH]3)cc2n1` (single isomer, unassigned) [Example 45B] displayed an EC50 of 3000 nM. `Nc1nc(N[C@@H]2C[C@H]3C[C@@H](O)C[C@H]3C2)c2ccc(-c3ccn[nH]3)cc2n1` [Example 2, (2r,3aR,5r,6aS)-5-((2-amino-7-(1H-pyrazol-5-yl)quinazolin-4-yl)amino)octahydropentalen-2-ol] came in with an EC50 of 600 nM. Compared with the last compound, the EC50 is about 5-fold lower.

These data come from patent publication US12391675B2, “NLRP3 modulators” (INNATE TUMOR IMMUNITY, INC., priority 2019, dated 2025).
